What was measured:
[1] = tested on: MRC5; experiment: Cytotoxicity against human diploid embryonic lung cell line (MRC5 cells) using the colorimetric MTT assay; assay type: functional
[2] = target: T1, Histidine-rich protein PFHRP-II (Plasmodium falciparum) (UniProt P05227); experiment: Vacuolar accumulation ratio (VAR) on beta-hematin inhibitory activity; assay type: functional
T1 sequence (whole entry): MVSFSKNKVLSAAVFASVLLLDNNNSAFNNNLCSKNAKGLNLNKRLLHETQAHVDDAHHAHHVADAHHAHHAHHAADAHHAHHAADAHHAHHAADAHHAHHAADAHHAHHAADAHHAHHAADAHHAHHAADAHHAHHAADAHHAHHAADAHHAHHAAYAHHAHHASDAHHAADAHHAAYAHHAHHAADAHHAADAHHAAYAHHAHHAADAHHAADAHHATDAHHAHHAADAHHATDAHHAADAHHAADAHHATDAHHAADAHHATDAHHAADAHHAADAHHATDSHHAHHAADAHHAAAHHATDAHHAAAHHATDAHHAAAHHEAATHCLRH

[3] = tested on: Plasmodium falciparum; experiment: Antimalarial activity against chloroquine-resistant Plasmodium falciparum FcB1; assay type: functional, organism-based
[4] = tested on: MRC5; experiment: Relative inhibitory activity to cytotoxicity as selectivity index (CC50/IC50); assay type: functional
[5] = target: T1, Histidine-rich protein PFHRP-II (Plasmodium falciparum); experiment: Inhibition of 1-monooleoyl glycerol (MOG) induced beta-hematin formation at 200 uM; assay type: functional

Row | SMILES | CC50 [1] | VAR [2] | IC50 [3] | Selectivity index [4] | inhibition [5]
1 | CCN(CC)CCCC(C)Nc1ccnc2cc(Cl)ccc12 (stereo unspecified) [CHLOROQUINE] | 50 µM | 5310 |  |  | 
2 | COc1ccc(C(=O)NCCCN2CCN(CCCN(CC(C)C)CC(C)C)CC2)cc1 | 57.7 µM | 3100 | 4.43 µM |  | 
3 | CC(C)CN(CCCN1CCN(CCCNC(=O)c2ccncc2)CC1)CC(C)C | > 100 µM | 3200 | 1.55 µM | 65 | 0%
4 | CC(C)CN(CCCN1CCN(CCCNc2cnccn2)CC1)CC(C)C | 80 µM | 3600 | 0.531 µM | 151 | 
5 | CC(C)CN(CCCN1CCN(CCCNc2nc3ccccc3[nH]2)CC1)CC(C)C | 16 µM | 388000 | 0.0873 µM | 183 | 
6 | COc1ccc(CNCCCN2CCN(CCCN(CC(C)C)CC(C)C)CC2)cc1 | 12 µM | 476000 | 0.111 µM |  | 
7 | CC(C)CN(CCCN1CCN(CCCNCc2ccc(Cl)cc2)CC1)CC(C)C | 13 µM | 475000 | 0.0406 µM |  | 
8 | CC(C)CN(CCCN1CCN(CCCNc2nc3ccccc3o2)CC1)CC(C)C | > 100 µM | 298000 | 1.33 µM | >75 | 
9 | CC(C)CN(CCCN1CCN(CCCNC(=O)c2ccc3ccccc3c2)CC1)CC(C)C | 44 µM | 3300 | 0.672 µM | >65 | 54%
10 | CC(C)CN(CCCN1CCN(CCCNCc2ccncc2)CC1)CC(C)C | 30 µM | 504000 | 0.842 µM | 36 | 
11 | CC(C)CN(CCCN1CCN(CCCNc2ccnc3ccccc23)CC1)CC(C)C | 30 µM | 882000 | 0.0189 µM | 1587 | 
12 | CC(C)CN(CCCN1CCN(CCCNc2ccc([N+](=O)[O-])cn2)CC1)CC(C)C | 49 µM | 3800 | 0.758 µM | 65 | 53%
13 | CC(C)CN(CCCN1CCN(CCCNc2[nH]cnc3ncnc2-3)CC1)CC(C)C | 82 µM | 6200 | 1.23 µM | 67 | 53%
14 | CC(C)CN(CCCN1CCN(CCCNc2ccnc3cc(Cl)ccc23)CC1)CC(C)C |  | 597000 |  |  | 
15 | CC(C)CN(CCCN1CCN(CCCNC(=O)c2ccc(Cl)cc2)CC1)CC(C)C | 93 µM | 3400 | 5.27 µM | 18 | 0%
16 | CC(C)CN(CCCN1CCN(CCCNCc2ccc3ccccc3c2)CC1)CC(C)C | 6.5 µM | 475000 | 0.121 µM | 54 | 98%
17 | CC(C)CN(CCCN1CCN(CCCNCc2ccccc2)CC1)CC(C)C | 21 µM | 476000 | 0.454 µM | 46 | 

Reference: ChEMBL document CHEMBL1146633, “Synthesis and antimalarial evaluation of new 1,4-bis(3-aminopropyl)piperazine derivatives” (Bioorg Med Chem Lett, 2003)
